Experiments:
[1] = target: GDP-bound KRAS wild-type protein (Homo sapiens, UniProt P01116); test: Binding to KRAS by surface plasmon resonance (SPR), Single Cycle Kinetics; settings: SPR, Single Cycle Kinetics, GDP-bound KRAS wild-type protein; read-out: KRAS KD
[2] = target: GDP-bound NRAS wild-type protein (Homo sapiens, UniProt P01111); test: Binding to NRAS by surface plasmon resonance (SPR), Single Cycle Kinetics; settings: SPR, GDP-bound NRAS wild-type protein vs GDP-bound KRAS wild-type protein
Chain of GDP-bound NRAS wild-type protein (P01111 whole entry): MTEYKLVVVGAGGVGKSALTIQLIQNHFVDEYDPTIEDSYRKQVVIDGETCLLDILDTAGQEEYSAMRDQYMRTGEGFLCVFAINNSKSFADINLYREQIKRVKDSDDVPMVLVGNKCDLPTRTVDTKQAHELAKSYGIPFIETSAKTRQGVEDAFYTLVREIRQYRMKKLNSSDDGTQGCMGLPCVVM

[3] = target: GDP-bound HRAS wild-type protein (Homo sapiens, UniProt P01112); test: Binding to HRAS by surface plasmon resonance (SPR), Single Cycle Kinetics; settings: SPR, GDP-bound HRAS wild-type protein vs GDP-bound KRAS wild-type protein
Chain of GDP-bound HRAS wild-type protein (P01112 whole entry): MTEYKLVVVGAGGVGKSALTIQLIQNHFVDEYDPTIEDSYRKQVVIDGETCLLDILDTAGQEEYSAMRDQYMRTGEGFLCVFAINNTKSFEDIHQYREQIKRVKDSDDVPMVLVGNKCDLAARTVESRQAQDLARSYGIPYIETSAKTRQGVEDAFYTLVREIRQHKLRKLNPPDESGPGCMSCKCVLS

Chain of GDP-bound KRAS wild-type protein (P01116 whole entry): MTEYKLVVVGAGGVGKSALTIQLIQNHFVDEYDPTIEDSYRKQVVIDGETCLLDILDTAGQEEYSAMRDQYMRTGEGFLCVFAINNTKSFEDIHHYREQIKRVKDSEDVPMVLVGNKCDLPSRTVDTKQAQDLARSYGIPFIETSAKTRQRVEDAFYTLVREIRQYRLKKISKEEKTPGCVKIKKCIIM

Row | Compound | Kd [1] [nM] | NRAS/KRAS (ratio of KD value for NRAS to KD value for KRAS) [2] | HRAS/KRAS (ratio of KD value for HRAS to KD value for KRAS) [3]
1 | CCO[C@@H]1C[C@H]2C(=O)NC3(CCC3)C(=O)N(C)[C@@H](C3CCCC3)C(=O)N(C)[C@H](C(=O)N(C)C)CC(=O)N(C)[C@@H](COC)C(=O)N[C@@H]([C@@H](C)CC)C(=O)N(C)CC(=O)N(C)[C@H]3C/C=C\CCN(C3=O)[C@@H](Cc3ccc(C(F)(F)F)cc3)C(=O)N(C)CC(=O)N[C@@H](CCc3cc(F)c(C(F)(F)F)c(F)c3)C(=O)N2C1 [PP1113, (2S,8S,12R,14S,20S,23S,27S,30S,36S,38Z)-20-cyclopentyl-8-[2-[3,5-difluoro-4-(trifluoromethyl)phenyl]ethyl]-12-ethoxy-27-(methoxymethyl)-N,N,4,19,22,26,32,35-octamethyl-30-[(1S)-1-methylpropyl]-3,6,9,15,18,21,25,28,31,34,42-undecaoxo-2-[[4-(trifluoromethyl)phenyl]methyl]spiro[1,4,7,10,16,19,22,26,29,32,35-undecazatricyclo[34.5.1.0^10,14]dotetracont-38-ene-17,1′-cyclobutane]-23-carboxamide] | 0.031 | A (a compound having 10 or more and less than 20 is denoted as A) | A (a compound having 10 or more and less than 20 is denoted as A)
2 | C=CC[C@H]1C(=O)N[C@@H]([C@@H](C)CC)C(=O)N(C)CC(=O)N(C)[C@H]2C/C=C\CCN(C2=O)[C@@H](Cc2ccc(C(F)(F)F)cc2)C(=O)N(C)CC(=O)N[C@@H](CCc2cc(F)c(C(F)(F)F)c(F)c2)C(=O)N2C[C@H](OCC)C[C@H]2C(=O)NC2(CCC2)C(=O)N(C)[C@@H](C2CCCC2)C(=O)N(C)[C@H](C(=O)N(C)C)CC(=O)N1C [PP1114, (2S,8S,12R,14S,20S,23S,27S,30S,36S,38Z)-27-allyl-20-cyclopentyl-8-[2-[3,5-difluoro-4-(trifluoromethyl)phenyl]ethyl]-12-ethoxy-N,N,4,19,22,26,32,35-octamethyl-30-[(1S)-1-methylpropyl]-3,6,9,15,18,21,25,28,31,34,42-undecaoxo-2-[[4-(trifluoromethyl)phenyl]methyl]spiro[1,4,7,10,16,19,22,26,29,32,35-undecazatricyclo[34.5.1.0^10,14]dotetracont-38-ene-17,1′-cyclobutane]-23-carboxamide] | 0.054 | A (a compound having 10 or more and less than 20 is denoted as A) | A (a compound having 10 or more and less than 20 is denoted as A)
3 | C#CC[C@H]1C(=O)N[C@@H]([C@@H](C)CC)C(=O)N(C)CC(=O)N(C)[C@H]2C/C=C\CCN(C2=O)[C@@H](Cc2ccc(C(F)(F)F)cc2)C(=O)N(C)CC(=O)N[C@@H](CCc2cc(F)c(C(F)(F)F)c(F)c2)C(=O)N2C[C@H](OCC)C[C@H]2C(=O)NC2(CCC2)C(=O)N(C)[C@@H](C2CCCC2)C(=O)N(C)[C@H](C(=O)N(C)C)CC(=O)N1C [PP1115, (2S,8S,12R,14S,20S,23S,27S,30S,36S,38Z)-20-cyclopentyl-8-[2-[3,5-difluoro-4-(trifluoromethyl)phenyl]ethyl]-12-ethoxy-N,N,4,19,22,26,32,35-octamethyl-30-[(1S)-1-methylpropyl]-3,6,9,15,18,21,25,28,31,34,42-undecaoxo-27-prop-2-ynyl-2-[[4-(trifluoromethyl)phenyl]methyl]spiro[1,4,7,10,16,19,22,26,29,32,35-undecazatricyclo[34.5.1.0^10,14]dotetracont-38-ene-17,1′-cyclobutane]-23-carboxamide] | 0.054 | A (a compound having 10 or more and less than 20 is denoted as A) | A (a compound having 10 or more and less than 20 is denoted as A)
4 | CCO[C@@H]1C[C@H]2C(=O)NC3(CCC3)C(=O)N(C)[C@@H](C3CCCC3)C(=O)N(C)[C@H](C(=O)N(C)C)CC(=O)N(C)[C@@H](Cc3ccccc3)C(=O)N[C@@H]([C@@H](C)CC)C(=O)N(C)CC(=O)N(C)[C@H]3C/C=C\CCN(C3=O)[C@@H](Cc3ccc(C(F)(F)F)cc3)C(=O)N(C)CC(=O)N[C@@H](CCc3cc(F)c(C(F)(F)F)c(F)c3)C(=O)N2C1 [PP1116, (2S,8S,12R,14S,20S,23S,27S,30S,36S,38Z)-27-benzyl-20-cyclopentyl-8-[2-[3,5-difluoro-4-(trifluoromethyl)phenyl]ethyl]-12-ethoxy-N,N,4,19,22,26,32,35-octamethyl-30-[(1S)-1-methylpropyl]-3,6,9,15,18,21,25,28,31,34,42-undecaoxo-2-[[4-(trifluoromethyl)phenyl]methyl]spiro[1,4,7,10,16,19,22,26,29,32,35-undecazatricyclo[34.5.1.0^10,14]dotetracont-38-ene-17,1′-cyclobutane]-23-carboxamide] | 0.069 | A (a compound having 10 or more and less than 20 is denoted as A) | A (a compound having 10 or more and less than 20 is denoted as A)
5 | CCO[C@@H]1C[C@H]2C(=O)NC3(CCC3)C(=O)N(C)[C@@H](C3CCCC3)C(=O)N(C)[C@H](C(=O)N(C)C)CC(=O)N(C)[C@@H](CC(C)(C)C)C(=O)N[C@@H]([C@@H](C)CC)C(=O)N(C)CC(=O)N(C)[C@H]3C/C=C\CCN(C3=O)[C@@H](Cc3ccc(C(F)(F)F)cc3)C(=O)N(C)CC(=O)N[C@@H](CCc3cc(F)c(C(F)(F)F)c(F)c3)C(=O)N2C1 [PP1117, (2S,8S,12R,14S,20S,23S,27S,30S,36S,38Z)-20-cyclopentyl-8-[2-[3,5-difluoro-4-(trifluoromethyl)phenyl]ethyl]-27-(2,2-dimethylpropyl)-12-ethoxy-N,N,4,19,22,26,32,35-octamethyl-30-[(1S)-1-methylpropyl]-3,6,9,15,18,21,25,28,31,34,42-undecaoxo-2-[[4-(trifluoromethyl)phenyl]methyl]spiro[1,4,7,10,16,19,22,26,29,32,35-undecazatricyclo[34.5.1.0^10,14]dotetracont-38-ene-17,1′-cyclobutane]-23-carboxamide] | 0.07 | A (a compound having 10 or more and less than 20 is denoted as A) | A (a compound having 10 or more and less than 20 is denoted as A)
6 | CCO[C@@H]1C[C@H]2C(=O)NC3(CCC3)C(=O)N(C)[C@@H](C3CCCC3)C(=O)N(C)[C@H](C(=O)N(C)C)CC(=O)N(C)[C@@H](CSC)C(=O)N[C@@H]([C@@H](C)CC)C(=O)N(C)CC(=O)N(C)[C@H]3C/C=C\CCN(C3=O)[C@@H](Cc3ccc(C(F)(F)F)cc3)C(=O)N(C)CC(=O)N[C@@H](CCc3cc(F)c(C(F)(F)F)c(F)c3)C(=O)N2C1 [PP1119, (2S,8S,12R,14S,20S,23S,27R,30S,36S,38Z)-20-cyclopentyl-8-[2-[3,5-difluoro-4-(trifluoromethyl)phenyl]ethyl]-12-ethoxy-N,N,4,19,22,26,32,35-octamethyl-30-[(1S)-1-methylpropyl]-27-(methylsulfanylmethyl)-3,6,9,15,18,21,25,28,31,34,42-undecaoxo-2-[[4-(trifluoromethyl)phenyl]methyl]spiro[1,4,7,10,16,19,22,26,29,32,35-undecazatricyclo[34.5.1.0^10,14]dotetracont-38-ene-17,1′-cyclobutane]-23-carboxamide] | 0.037 | A (a compound having 10 or more and less than 20 is denoted as A) | A (a compound having 10 or more and less than 20 is denoted as A)

From patent publication US20240158446A1, “CYCLIC COMPOUND HAVING SELECTIVE INHIBITORY ACTION ON KRAS OVER HRAS AND NRAS” (CHUGAI SEIYAKU KABUSHIKI KAISHA, priority 2021, published 2024)
